Here are results for four molecules from PMC11655904, “[^89Zr]Zr-DFO-TOC: a novel radiopharmaceutical for PET imaging of somatostatin receptor positive neuroendocrine tumors” (EJNMMI Radiopharmacy and Chemistry, 2024).

In data set [1] the test system is PANC-1 cells. The experiment in a line: Internalization assay, PANC-1 cells. Type of data set: cell-based. As to conditions: 0.025 nmol DFO-TOC, 1 µCi per well; time points 30 min, 1 h, 3 h; trypsin and sodium citrate pH 2 strip. Here is the method: (§1) Cells were seeded in Fisherbrand™ 12-well surface-treated culture plates with 1 million cells per well for each cell line and were allowed to grow overnight under cell culture conditions. For internalization experiments, each well received 0.025 nmol DFO-TOC radiolabeled with 1 µCi (0.037 MBq) of [^89Zr]Zr-DFO-TOC in 1 mL of cell media. Plates were incubated with [^89Zr]Zr-DFO-TOC for 30 min, 1 h, and 3 h. Cells were detached from the wells using 800 µL of 0.05% Gibco trypsin incubated for 5 min. Cells were sedimented using a benchtop centrifuge at 7000 g for 5 min. The supernatant was removed, and the cells were resuspended in 200 µL of 0.1 M Supelco sodium citrate (pH 2) for 5 min. The cells were sedimented using a benchtop microcentrifuge and the supernatant was added to the trypsin. The supernatant and cell pellet activities were determined using the Wizard2 Gamma Counter.

The nature of data set [2]: Benchtop stability of the radiotracer (radio-HPLC and iTLC). As to conditions: mean ± standard deviation. Type of data set: physicochemical.
Procedure: To neutralize [^89Zr]Zr-oxalate, an equal volume of [^89Zr]Zr-oxalate and 0.5 M Thermo Scientific HEPES (concentration 99%) buffer were mixed. The pH of the sample was then adjusted using 5.0 M NaOH. For all radiolabeling experiments, 100 µCi (3.7 MBq) of ^89Zr (pH ~ 7.4) was incubated with varying molar quantities of DFO-TOC and 1.0 M HEPES buffer in a final incubation volume of 200 µL. The reaction was incubated on a thermomixer at 37 °C and 800 rpm for 30 min. The molar activity was determined by radiolabeling 1 nmol of DFO-TOC with varying activities of ^89Zr up to 1500 µCi (55.5 MBq) and 1.0 M HEPES buffer in a final incubation volume of 200 µL. Samples were incubated using the same conditions as the radiochemical yield assays. Samples were analyzed using an Agilent (Santa Clara, CA) 1260 Infinity II high-performance liquid chromatography (HPLC) instrument with a LabLogic (Chantilly, VA) Flow-RAM radio-HPLC detector. Radiochemical yields were determined via radio-HPLC using a reversed-phase C18 selectivity column (5 μm particle size, 150 mm length, and 4.6 mm diameter).
The samples were assessed for benchtop stability and stability in mouse serum only if a radiochemical yield of 95% or greater was achieved. Benchtop stability was assessed at time points of 30 min, 1 h, 1 day, 2 days, 3 days, 6 days, and 9 days using an Eckert & Ziegler (Valencia, CA) AR-2000 instant Thin Layer Chromatography (iTLC) and radio-HPLC. Diethylenetriamine pentaacetic acid was used as the mobile phase for iTLC, while radio-HPLC used the gradient described previously. Stability in mouse serum was assessed by adding 100 µL of a 200 [drawing 3] […] No further sample purification was conducted before injection on the radio-HPLC. All samples remained on a thermomixer at 37 °C and 800 rpm, and aliquots were removed for analysis by using iTLC and radio-HPLC, after 1 h, 1 day, 2 days, 3 days, 5 days, 6 days, and 9 days.
Data set [3] concerns PANC-1 cells (SSTR2 minimal expression). The experiment in a line: Receptor binding and competitive receptor blocking assay, PANC-1 cells. Type of data set: cell-based. Here is the method: (§2) Cells were seeded in Fisherbrand™ 12-well surface-treated culture plates with 1 million cells per well for each cell line and were allowed to adhere overnight under normal cell culture conditions. Samples were not purified to remove excess DFO-TOC. For receptor binding and blocking experiments, each well was incubated with [^89Zr]Zr-DFO-TOC (0.025 nmol DFO-TOC per well, 1 µCi (0.037 MBq) of [^89Zr]) in 1mL of cell media. For receptor blocking experiments,
(§3) 2.5 nmol unlabeled DFO-TOC was added to each well, in addition to [^89Zr]Zr-DFO-TOC. Culture plates were incubated with the tracer for 1 h, 3 h, 1 day, 3 days, 5 days, and 6 days. At each timepoint, the media was removed and the cells were washed with PBS twice. Cells were detached using 1 mL of 1 M NaOH and collected in a microcentrifuge tube for analysis using a Revvity (Waltham, MA) Wizard2 Gamma Counter. BCA assays were used to estimate protein concentrations per the manufacturer’s instructions.
(§4) All data was analyzed using GraphPad Prism (San Diego, CA) and is presented as a mean ± standard deviation. Statistical analysis was completed using a paired nonparametric t-test (α = 0.05) to compare cell total binding and cell blocking groups.

Data set [4] relates to PC-3 cells (SSTR2 moderate expression). As to the kind of experiment: Receptor binding and competitive receptor blocking assay, PC-3 cells. As to conditions: 2.5 nmol unlabeled DFO-TOC (100x excess) as blocking agent; at 120 h; p = 0.0001; paired nonparametric t-test. It is filed as cell-based. Here is the method: as §2, §3, §4
In data set [5] the test system is AR42J cells (SSTR2 high expression). The experiment in a line: Receptor binding and competitive receptor blocking assay, AR42J cells. Type of data set: cell-based. How it is done:
as §2, §3, §4

Data set [6] deals with PC-3 cells. As to the kind of experiment: Internalization assay, PC-3 cells. Type of data set: cell-based. How it is done:
as §1

The subject of data set [7] is AR42J cells. As to the kind of experiment: Internalization assay, AR42J cells. It is filed as cell-based. As to conditions: 0.025 nmol DFO-TOC, 1 µCi per well; time points 30 min, 1 h, 3 h; trypsin and sodium citrate pH 2 strip. How it is done:
as §1

The conditions of data set [8]: 100 µL of tracer sample (200 µCi, 7.4 MBq) in 400 µL prefiltered mouse serum, 37 °C, 800 rpm, mean ± standard deviation.
Procedure: To neutralize [^89Zr]Zr-oxalate, an equal volume of [^89Zr]Zr-oxalate and 0.5 M Thermo Scientific HEPES (concentration 99%) buffer were mixed. The pH of the sample was then adjusted using 5.0 M NaOH. For all radiolabeling experiments, 100 µCi (3.7 MBq) of ^89Zr (pH ~ 7.4) was incubated with varying molar quantities of DFO-TOC and 1.0 M HEPES buffer in a final incubation volume of 200 µL. The reaction was incubated on a thermomixer at 37 °C and 800 rpm for 30 min. The molar activity was determined by radiolabeling 1 nmol of DFO-TOC with varying activities of ^89Zr up to 1500 µCi (55.5 MBq) and 1.0 M HEPES buffer in a final incubation volume of 200 µL. […] Samples were analyzed using an Agilent (Santa Clara, CA) 1260 Infinity II high-performance liquid chromatography (HPLC) instrument with a LabLogic (Chantilly, VA) Flow-RAM radio-HPLC detector. Radiochemical yields were determined via radio-HPLC using a reversed-phase C18 selectivity column (5 μm particle size, 150 mm length, and 4.6 mm diameter).
The samples were assessed for benchtop stability and stability in mouse serum only if a radiochemical yield of 95% or greater was achieved. Benchtop stability was assessed at time points of 30 min, 1 h, 1 day, 2 days, 3 days, 6 days, and 9 days using an Eckert & Ziegler (Valencia, CA) AR-2000 instant Thin Layer Chromatography (iTLC) and radio-HPLC. […]
In data set [9] the test system is SSTR2, AR42J. As to conditions: ref Vaidyanathan et al. [2003], Hofland et al. [1999]; cited from earlier work.
Data set [10] deals with SSTR2. Also on record: method as in Buscail et al. [1994]. As to conditions: ref Buscail et al. [1994]; cited from earlier work. From the text: Significant progress has been made in recent years towards understanding the underlying biology and molecular pathways involved with NETs, particularly the role of somatostatin receptors (SSTRs) and their downstream pathways. SSTRs (SSTR1, 2 A/2B, 3, 4, and 5) belong to a family of G protein-coupled receptors with seven transmembrane-spanning proteins that bind the cyclic peptide somatostatin (SST) (Theodoropoulou and Stalla [2013]). SST regulates cell growth and inhibits hormone secretion in the endocrine and exocrine systems (Brereton et al. [2015]; Ampofo et al. [2020]). Prior research has ...

The conditions of data set [11]: ref Brereton et al. [2015]; Lamberts et al. [1996]; cited from earlier work. From the text:
Significant progress has been made in recent years towards understanding the underlying biology and molecular pathways involved with NETs, particularly the role of somatostatin receptors (SSTRs) and their downstream pathways. SSTRs (SSTR1, 2 A/2B, 3, 4, and 5) belong to a family of G protein-coupled receptors with seven transmembrane-spanning proteins that bind the cyclic peptide somatostatin (SST) (Theodoropoulou and Stalla [2013]). SST regulates cell growth and inhibits hormone secretion in the endocrine and exocrine systems (Brereton et al. [2015]; Ampofo et al. [2020]).

Values joined by “and” are separate entries in the source; they are usually repeats but may differ in a detail not shown here. Identical values can stand only once. “Also recorded” adds a separate entry of the source.

With `CC(=O)N(O)CCCCCNC(=O)CCC(=O)N(O)CCCCCNC(=O)CCC(=O)N(O)CCCCCNC(=S)Nc1ccc(NC(=S)NCCCCCC(=O)N[C@H](Cc2ccccc2)C(=O)N[C@H]2CSSC[C@@H](C(=O)N[C@H](CO)[C@@H](C)O)NC(=O)[C@H]([C@@H](C)O)NC(=O)[C@H](CCCCN)NC(=O)[C@@H](Cc3c[nH]c4ccccc34)NC(=O)[C@H](Cc3ccc(O)cc3)NC2=O)cc1` [[^89Zr]Zr-DFO-TOC, metal not drawn], the “time of maximum cell internalization, PANC-1” value in data set [1] is reported as 3 h. Moreover, the “radiochemical yield on the benchtop after 9 days, iTLC” value in data set [2] (iTLC, diethylenetriamine pentaacetic acid mobile phase) is listed as 97 ± 4%. Besides, the “radiochemical yield on the benchtop after 9 days, radio-HPLC” value in data set [2] (radio-HPLC, C18, 0.1% TFA water/acetonitrile gradient) is 89.6% and 90 ± 4%. Moreover, the “tracer uptake in PANC-1 cells” value in data set [3] (0.025 nmol DFO-TOC, 1 µCi per well, attributed to low SSTR2 expression) is reported as “Low”. Further, the “blocking versus total binding groups, PANC-1” value in data set [3] (2.5 nmol unlabeled DFO-TOC (100x excess) as blocking agent, all time points, paired nonparametric t-test) is “No statistically significant difference”. For the same molecule, the “blocking versus total binding groups, PC-3” value in [4] is “statistically significant difference”. Besides, the “tracer uptake (total binding) in AR42J cells compared with the other cell lines” value in [5] (0.025 nmol DFO-TOC, 1 µCi per well, 1 million cells per well, 1 h to 6 days, gamma counter, P < 0.0001 vs PC-3 and p = 0.0001 vs PANC-1 after 1 h) is “highest uptake; also recorded: higher uptake than PC-3 and PANC-1 cell lines at all time points”. The “time at which AR42J cell binding reached saturation” value in data set [5] (0.025 nmol DFO-TOC, 1 µCi per well, time points 1 h to 6 days) turned out to be 5 days. In addition, the “blocking versus total binding groups, AR42J” value in [5] (2.5 nmol unlabeled DFO-TOC (100x excess) as blocking agent, after 1 h, p < 0.0001, paired nonparametric t-test) was “statistically significant difference”. Moreover, the “time of maximum cell internalization, PC-3” value in data set [6] (0.025 nmol DFO-TOC, 1 µCi per well, time points 30 min, 1 h, 3 h, trypsin and sodium citrate pH 2 strip) came out at 3 h. Further, in data set [6] (time points up to 3 h), the “percentage of tracer internalized in PC-3 compared with AR42J and PANC-1” value is on record as “higher percentage of the tracer was internalized”. Besides, the “time of maximum cell internalization, AR42J” value in [7] is 3 h. Further, in data set [8], the “radiochemical yield in mouse serum after 9 days, radio-HPLC” value amounted to 89 ± 2%.
As for [Tyr3, Thr8]-octreotide, the “earliest time at which SSTR2 internalization was observed” value in data set [9] was 2.5 min.
With octreotide, the “receptor affinity for SSTR2” value in data set [10] is recorded as “high receptor affinity”.
Regarding somatostatin [SST], the bioactive half-life in data set [11] is reported as below 1 min.
